This passage reports IC50 results from US12319655B2, “RAF kinase inhibitors and methods of use thereof” (Deciphera Pharmaceuticals, LLC, priority 2021, dated 2025).

The structures appear in SMILES notation. pIC50: −log10 of the molar value.

Assay [1] concerns the target B-Raf kinase (SEQ. ID NO: 2) (Homo sapiens (Human), UniProt P15056). The assay is described as follows: Biochemical Assay for B-Raf (2). The conditions noted are these: Table J, biochemical assay (2); read-out: BRAF (2). As for the experimental part:
Biochemical Assay for B-Raf (2)
Activity of B-Raf kinase (SEQ. ID NO: 2) was determined spectroscopically using a coupled pyruvate kinase/lactate dehydrogenase assay that continuously monitors the ATP hydrolysis-dependent oxidation of NADH (e.g., Schindler et al., Science, 2000, 289, 1938-1942). Assays were conducted in 384-well plates (25 μL final volume) using 2 nM B-Raf (Sigma), 1.5 units pyruvate kinase, 2.1 units lactate dehydrogenase, 1 mM phosphoenol pyruvate, 0.7 mM NADH, 50 nM MEK (SignalChem), and 1 mM ATP in assay buffer (100 mM Tris, pH 7.5, 15 mM MgCl2, 0.5 mM DTT, 0.1% octyl-glucoside, 0.002% (w/v) BSA, and 0.002% Triton X-100). Inhibition of B-Raf was measured by adding serial diluted test compound (final assay concentration of 1% DMSO). A decrease in absorption at 340 nm was monitored hourly for 4 h at 30° C. on a multi-mode microplate reader (BioTek). The reaction rate was calculated using the 2 to 3 h time frame. The reaction rate at each concentration of compound was converted to percent inhibition using controls (i.e., reaction with no test compound and reaction with a known inhibitor) and IC50 values were calculated by fitting a four-parameter sigmoidal curve to the data using Prism (GraphPad software).

The target in assay [2] is B-Raf (V600E) (SEQ. ID NO: 4) kinase (Homo sapiens (Human), UniProt P15056, V600E). The assay is described as follows: Biochemical Assay for B-Raf (V600E) (2). The conditions noted are these: Table J, BRAF V600E, biochemical assay (2); read-out: BRAF VE (2). The method, then: Biochemical Assay for B-Raf (V600E) (2)
B-Raf (V600E) (SEQ. ID NO: 4) kinase, sequence (P15056 416-766 V600E): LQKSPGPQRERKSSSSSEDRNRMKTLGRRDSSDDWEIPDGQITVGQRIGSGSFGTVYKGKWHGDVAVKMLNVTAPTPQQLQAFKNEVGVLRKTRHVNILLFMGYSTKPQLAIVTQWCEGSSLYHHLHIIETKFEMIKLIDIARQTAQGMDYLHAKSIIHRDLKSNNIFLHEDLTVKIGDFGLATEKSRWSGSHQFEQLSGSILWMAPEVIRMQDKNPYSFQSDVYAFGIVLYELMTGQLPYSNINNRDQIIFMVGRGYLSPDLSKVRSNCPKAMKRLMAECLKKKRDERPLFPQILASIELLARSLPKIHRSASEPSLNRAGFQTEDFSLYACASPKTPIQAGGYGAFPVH
Activity of B-Raf (V600E) (SEQ. ID NO: 4) kinase was determined spectroscopically using a coupled pyruvate kinase/lactate dehydrogenase assay that continuously monitors the ATP hydrolysis-dependent oxidation of NADH (e.g., Schindler et al., Science, 2000, 289, 1938-1942). Assays were conducted in 384-well plates (25 μL final volume) using 0.5 nM B-Raf (deCode), 1.5 units pyruvate kinase, 2.1 units lactate dehydrogenase, 1 mM phosphoenol pyruvate, 0.7 mM NADH, 100 nM MEK (SignalChem), and 1 mM ATP in assay buffer (100 mM Tris, pH 7.5, 15 mM MgCl2, 0.5 mM DTT, 0.1% octyl-glucoside, 0.002% (w/v) BSA, and 0.002% Triton X-100). Inhibition of B-Raf (V600E) was measured by adding serial diluted test compound (final assay concentration of 1% DMSO). A decrease in absorption at 340 nm was monitored hourly for 4 h at 30° C. on a multi-mode microplate reader (BioTek). The reaction rate was calculated using the 3 to 4 h time frame. The reaction rate at each concentration of compound was converted to percent inhibition using controls (i.e., reaction with no test compound and reaction with a known inhibitor) and IC50 values were calculated by fitting a four-parameter sigmoidal curve to the data using Prism (GraphPad software).

B-Raf kinase (SEQ. ID NO: 2), sequence (P15056 416-766): as the sequence (P15056 416-766 V600E) above, with E185V counted along it

As for `Cc1ccc(NC(=O)c2ccnc(C(C)(C)C#N)c2)cc1-c1ccnc(-c2ccnc(NC(=O)C3CC3)c2)c1` [Example 456], the pIC50 in assay [1] and in assay [2] was at least 7.00 in each case.
Consider `Cc1ccc(NC(=O)c2ccnc(C(C)(C)F)c2)cc1-c1ccnc(-c2ccnc(C(=O)NC3CN(C)C3)c2)c1` [Example 450], for which the pIC50 in assay [1] is 6.30 to 7.00; in assay [2], at least 7.00.
Taken in the same sequence, the figures for `CNC(=O)c1cc(-c2cc(-c3cc(NC(=O)c4ccnc(C(C)C)c4)ccc3C)ccn2)ccn1` [Example 443] were at least 7.00 and at least 7.00.
For `CNC(=O)c1cc(-c2cc(-c3cc(NC(=O)c4ccnc(C(C)(C)F)c4)ccc3C)cc(OCCO)n2)ccn1` [Example 449], the results for the pIC50 in assay [1] and in assay [2] were 6.30 to 7.00 and at least 7.00, respectively.
As to `Cc1ccc(NC(=O)c2ccnc(C3CC3)c2)cc1-c1ccnc(-c2ccnc(NC(=O)C3CC3)c2)c1` [Example 458], the pIC50 in assay [1] and in assay [2] was at least 7.00 in each case.
Regarding `CNC(=O)c1cc(-c2cc(-c3cc(NC(=O)c4ccnc(C(C)(C)F)c4)cc(F)c3C)ccn2)ccn1` [Example 480], the pIC50 in assay [1] is 6.30 to 7.00; in assay [2] it was at least 7.00.
Regarding `Cc1ccc(NC(=O)c2ccnc(C(C)(C)F)c2)cc1-c1ccnc(-c2ccnc(C(=O)NCCN(C)C)c2)c1` [Example 453], the pIC50 in assay [1] and in assay [2] was at least 7.00 in each case.
As for `Cc1ccc(NC(=O)c2ccnc(C(C)(C)F)c2)cc1-c1ccnc(-c2ccnc(NC(=O)C3CC3)c2)c1` [Example 455], the pIC50 in assay [1] and in assay [2] was at least 7.00 throughout.
